# Source: patent US20140242012A1, “METHODS FOR TREATING UV-DAMAGED SKIN AND SCC TUMORS AND FOR REMOVING TATTOOS WITH TOPICAL INGENOL MEBUTATE” (LEO Laboratories Limited, priority 2011, published 2014)
# Tests used:
# Assay type in all cases: in vivo, SKH1/hr mice
# UVB-damaged skin = experiment: Skin appearance and histology after treatment of UVB-damaged skin
# Method: For histological studies samples were fixed in 10% formalin and processed for paraffin embedding at the indicated times after ingenol mebutate treatment. Paraffin sections were stained with haematoxylin and eosin (H&E), or toluidine blue using standard protocols.
# (§1) Three days after the last dose of UVB irradiation, an about 4 cm^2 dorsal area was topically treated daily for 2 days with 40 μl of 0.05% PEP005 gel or placebo gel. The treatment area was demarcated by a tattoo. Mice were culled 6 h (6 h) and 24 h (Day 1) after the first dose of 0.05% PEP005 gel and 24 h after the second dose of 0.05% PEP005 gel or placebo gel (Day 2). The samples were fixed in 10% formalin and processed by QIMR histology for paraffin embedding. Paraffin sections were stained with haematoxylin and eosin (H&E), Leder stain or toludine blue by QIMR Histotechnology, in accordance with standard protocols.
# To identify the histological changes after 0.05% PEP005 gel treatment, skin was examined at different times after treatment; 6 h after the first dose was applied (6 h), 24 h after the first dose was applied (Day 1), and 24 h after the second dose was applied (Day 2). Placebo treated mice were treated with equivalent volumes of placebo gel and the skin examined 24 h after the second dose.
# as §1, with “a ˜4 cm2” for “an about 4 cm^2”
# Three days after the last dose of UVB irradiation, a ˜4 cm^2 dorsal area is topically treated daily for 2 days with 40 μl of 0.05% PEP005 gel or placebo gel. The treatment area is demarcated by a tattoo. […]
# T7 tumours = experiment: Challenge of ingenol mebutate cured mice with T7 cells; conditions: challenge 110 or 159 days after cure with 0.25% topical
# Method: To determine if cure of primary T7 tumours in inbred SKH1/hr mice would protect mice from subsequent challenge with the same tumour, T7 cells were injected s.c. in female SKH1/hr mice that had primary T7 tumours previously cured by topical treatment with 0.25% ingenol mebutate. There were 2 groups of mice, mice that had primary tumours cured by ingenol mebutate 110 (group 1) and 159 (group 2) days prior to challenge. Included in the study was a control group that had not previously received T7 or ingenol mebutate treatment. Tumour growth is monitored over time. Mice are culled when tumours reached 100 mm^2.
# Mice are inoculated s.c. with 2×10^4 T7 cells 110 (Day 110) or 159 (Day 159) days post last treatment of primary tumour with ingenol mebutate. Tumour growth is monitored over time. Mice are sacrificed when tumour reached 100 mm^2. Survival curves are generated by assigning a death event when tumours reached 100 mm^2. Control mice had neither prior T7 nor ingenol mebutate treatment.
# Tattoo studies = conditions: 50 μl topically daily for 2 days (Days 12 & 13), followed to Day 232, n=5
# Method: Fifteen SKH1/hr mice are tattooed on their dorsa with an about 1 cm×about 1 cm cross using human grade blue tattoo ink (Tattoo supplies Australia, Catalogue number FFMB) on Day 0. Once the tattooed area heals (after 12 days), the tattoo (about 100 mm^2) is topically treated daily for 2 days with 50 μl of PEP005 gel or placebo gel (Day 12 & Day 13). Two PEP005 doses are tested: 0.1% and 0.25% (w/v). The mice are examined over time to assess any changes to the tattooed area and photographs are taken.
# The aim study is to determine whether PEP005 gel can remove tattoo markings when applied topically. Fifteen mice are tattooed with a cross on their dorsa. Twelve days after the tattoos are drawn, they are treated topically daily for 2 days with 0.1% PEP005, 0.25% PEP005 or placebo gel. The photographs in FIG. 1 show the tattoo just prior to the first treatment (Day 12), 24 h after the first treatment (Day 13) and at different time points after the second treatment (from Day 14 onwards). […] One week after the second dose, an eschar encompassing the whole treatment area forms. This contracts over time and fully resolves after about 3 weeks (Day 32). […] Six to seven months after the PEP005 treatment is applied, the treated area heals, leaving skin with a slight pink tinge. […] There is no change in the placebo treated tattoos over this time frame. […]
smiles,measurement,setting,value
C/C=C(/C)C(=O)O[C@H]1C(C)=C[C@]23C(=O)[C@@H](C=C(CO)[C@@H](O)[C@]12O)[C@H]1[C@@H](C[C@H]3C)C1(C)C [ingenol mebutate],haemorrhage in treated skin,UVB-damaged skin; 24-48 h after treatment initiation,widespread haemorrhage
same,mast cells (toluidine blue staining),UVB-damaged skin; 24 h,few toluidine blue staining cells could be seen
same,reduction of mean skin area within the tattooed treatment area,"UVB-damaged skin; after healing up to 20-21 weeks, ~4 or ~10 cm2 area",about 3 fold
same,protection against subsequent T7 challenge,T7 tumours,no protective effect
same,removal of tattoo markings,Tattoo studies,eradication of the tattoo markings
